Values of other authors, collected in patent US10449194B2 (Tocagen Inc., priority 2008, dated 2019).
Where two headings read alike, the source gives them in different places.

[1] = patients with normal renal function

- Time to peak serum concentrations (2 gram oral dose, normal subjects): ≤ 2 h
- Average half-life (nephrectomized or anuric patients): 85 h
- Bioavailability (absorption) after oral administration (oral vs intravenous AUC of serum concentrations): 76-89%
- Half-life in the serum [1]: 2 to 5 h
- Time to peak concentrations in serum and other body fluids [1]: 1 to 2 h
- Half-life in the serum (patients with severe renal insufficiency): up to 85 h
Compound: Nc1nc(=O)[nH]cc1F [Example 5-FC, 5-fluorocytosine]
- Serum level above which toxicity generally occurs (Vermes et al. 2000): > 100 µg/mL
